Reference: US7897602B2, “Indolinone compounds as kinase inhibitors” (Development Center for Biotechnology, priority 2009, dated 2011)

Assays:
PDGFR-β kinase = target: T1, PDGFR-β kinase (Homo sapiens, UniProt P09619); experiment: PDGFR-β kinase assay (33P incorporation into Poly(Glu-Tyr)); format: biochemical; conditions: 500 nM test compound
T1 construct: recombinant N-terminal 6×His-tagged PDGFR-β kinase domain construct expressed by baculovirus; 6xHis (N); made in house
Method: Inhibition of PDGFR-β kinase activity by compounds disclosed herein was quantified by measuring the amount of [^33P] incorporated into the substrate in the presence of a test compound. Briefly, a reaction mixture of 25 μL final volume containing 55 ng of PDGFR-β kinase (obtained by purifying recombinant N-terminal 6×His-tagged PDGFR-β kinase domain construct expressed by baculovirus), 2.5 μg of the substrate (Poly (Glu-Tyr, 4:1, Sigma)), kinase reaction buffer (20 mM MOPS pH 7.0, 1 mM EDTA, 5% glycerol, 0.01% Brij-35, 0.1% β-mercaptoethanol, 1 mg/mL BSA, 2 mM MnCl2, 30 μM ATP, 0.1 μCi per well [^33P]-γ-ATP (2,500-3,000 Ci/mmol)), and a test compound (500 nM, diluted with 4% DMSO) or DMSO (as the control) was incubated at 30° C. for 30 minutes. The reaction was stopped by adding 5 μL of 3% phosphoric acid solution. The resultant reaction solution was then harvested onto a filter plate (UniFilter-96 GF/B, PerkinElmer), washed 20 times for 5 min with d.d. H2O, and followed by the addition of 30 μL of MicroScint™-20 Cocktail (PerkinElmer). The plate was then sealed and counted using a TopCount scintillation detector (PerkinElmer). The percentage of inhibition rate of the test compound was calculated by dividing the retained radioactivity of the test sample with the retained radioactivity of the control sample and shown in Table 3.

Flt3 kinase = target: T2, Flt3 kinase (Homo sapiens, UniProt P36888); experiment: Flt3 kinase assay (33P incorporation into Poly(Glu-Tyr)); format: biochemical; conditions: 100 nM test compound; read-out: Inhibition at 100 nM (%) Flt-3
T2 construct: recombinant N-terminal 6×His-tagged Flt3 kinase domain construct expressed from baculovirus; 6xHis (N); made in house
T2 sequence (P36888 610-943 limits assumed): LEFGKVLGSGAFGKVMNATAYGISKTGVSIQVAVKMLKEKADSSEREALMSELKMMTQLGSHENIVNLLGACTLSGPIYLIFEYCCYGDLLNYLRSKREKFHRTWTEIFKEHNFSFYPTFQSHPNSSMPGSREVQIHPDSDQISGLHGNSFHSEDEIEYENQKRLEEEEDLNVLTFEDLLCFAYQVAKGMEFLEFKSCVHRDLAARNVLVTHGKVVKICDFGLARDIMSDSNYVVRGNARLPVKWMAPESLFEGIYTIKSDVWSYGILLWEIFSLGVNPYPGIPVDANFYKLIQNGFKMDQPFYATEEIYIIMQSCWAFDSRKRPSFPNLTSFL
Method: Inhibition of Flt3 kinase activity by compounds disclosed herein was quantified by measuring the amount of [^33P] incorporated into the substrate in the presence of a test compound. Briefly, a reaction mixture of 25 μL final volume containing 5 ng of Flt3 kinase (obtained by purifying recombinant N-terminal 6×His-tagged Flt3 kinase domain construct expressed from baculovirus), 5 μg of the substrate (Poly (Glu-Tyr, 4:1, Sigma)), kinase reaction buffer (20 mM MOPS pH 7.0, 1 mM EDTA, 5% glycerol, 0.01% Brij-35, 0.1% β-mercaptoethanol, 1 mg/mL BSA, 100 μM ATP, 0.1 μCi per well [^33P]-γ-ATP (2,500-3,000 Ci/mmol)), and a test compound (100 nM, diluted with 4% DMSO) or DMSO (as the control) was incubated at 30° C. for 30 minutes. The reaction was stopped by adding 5 μL of 3% phosphoric acid solution. The resultant reaction solution was then harvested onto a filter plate (UniFilter-96 GF/B, PerkinElmer), washed 20 times for 5 min with d.d. H2O, and followed by the addition of 30 μL of MicroScint™-20 Cocktail (PerkinElmer). The plate was then sealed and counted using a TopCount scintillation detector (PerkinElmer). The percentage of inhibition rate of the test compound was calculated by dividing the retained radioactivity of the test sample with the retained radioactivity of the control sample and shown in Table 3.

T1 sequence (P09619 600-962 limits assumed): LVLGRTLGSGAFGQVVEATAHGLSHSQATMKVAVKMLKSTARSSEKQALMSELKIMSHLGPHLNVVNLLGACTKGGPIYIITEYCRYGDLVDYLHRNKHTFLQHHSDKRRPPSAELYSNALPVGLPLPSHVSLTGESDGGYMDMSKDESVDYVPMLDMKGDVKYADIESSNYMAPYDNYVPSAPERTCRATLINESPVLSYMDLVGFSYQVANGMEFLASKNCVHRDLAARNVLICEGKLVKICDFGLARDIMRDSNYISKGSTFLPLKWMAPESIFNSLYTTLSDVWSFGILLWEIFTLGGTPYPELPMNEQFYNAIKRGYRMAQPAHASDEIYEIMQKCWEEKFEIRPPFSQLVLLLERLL

| Structure (SMILES) | inhibition at 0.5 µM (PDGFR-β kinase) | inhibition at 0.1 µM (Flt3 kinase) |
| --- | --- | --- |
| O=C(O)CCc1c(/C=C2\C(=O)Nc3ccc(NC(=O)c4ccc(F)cc4)cc32)[nH]c2c1C(=O)CCC2 [DCB-70076, (Z)-5-(4-fluorobenzamido)-3-((3-carboxyethyl-4-oxo-4,5,6,7-tetrahydro-1H-indol-2-yl)methylene)indolin-2-one] | 26.9% | -3.1% |
| CCOC(=O)CCc1c(/C=C2\C(=O)Nc3cc(-c4ccc(O)c(O)c4)ccc32)[nH]c2c1C(=O)CCC2 [DCB-70077, (Z)-6-(3,4-dihydroxyphenyl)-3-((3-(3-ethoxy-3-oxopropyl)-4-oxo-4,5,6,7-tetrahydro-1H-indol-2-yl)methylene)indolin-2-one] | 66.3% | 58.4% |
| O=C(O)CCc1c(/C=C2\C(=O)Nc3cc(-c4ccc(O)c(O)c4)ccc32)[nH]c2c1C(=O)CCC2 [DCB-70078, (Z)-6-(3,4-dihydroxyphenyl)-3-((3-carboxyethyl-4-oxo-4,5,6,7-tetrahydro-1H-indol-2-yl)methylene)indolin-2-one] | 85% | 75% |
| O=C(O)CCc1c(/C=C2\C(=O)Nc3cc(-c4cc5ccccc5s4)ccc32)[nH]c2c1C(=O)CCC2 [DCB-70080, (Z)-6-(benzo[b]thiophen-2-yl)-3-((3-carboxyethyl-4-oxo-4,5,6,7-tetrahydro-1H-indol-2-yl)methylene)indolin-2-one] | 56.7% | 7.4% |
| COc1cc(-c2ccc3c(c2)NC(=O)/C3=C\c2[nH]c3c(c2CCC(=O)O)C(=O)CCC3)ccc1O [DCB-70082, (Z)-6-(4-hydroxy-3-methoxyphenyl)-3-((3-carboxyethyl-4-oxo-4,5,6,7-tetrahydro-1H-indol-2-yl)methylene)indolin-2-one] | 41.4% | 35.1% |
| CCOC(=O)CCc1c(C=C2C(=S)Nc3ccccc32)[nH]c2c1C(=O)CCC2 [DCB-70083, 3-((3-(3-ethoxy-3-oxopropyl)-4-oxo-4,5,6,7-tetrahydro-1H-indol-2-yl)methylene)indolin-2-thione] | 11.6% | 16% |
| CCOC(=O)CCc1c(C=C2C(=S)Nc3cc(Br)ccc32)[nH]c2c1C(=O)CCC2 [DCB-70085, 6-bromo-3-((3-(3-ethoxy-3-oxopropyl)-4-oxo-4,5,6,7-tetrahydro-1H-indol-2-yl)methylene)indolin-2-thione] | 16.5% | 18.2% |
| O=C(O)CCc1c(C=C2C(=S)Nc3cc(Br)ccc32)[nH]c2c1C(=O)CCC2 [DCB-70086, 6-bromo-3-((3-carboxyethyl-4-oxo-4,5,6,7-tetrahydro-1H-indol-2-yl)methylene)indolin-2-thione] | 12.8% | 0.5% |
| CCOC(=O)CCc1c(/C=C2\C(=O)Nc3ccc(NC(=O)Nc4ccc(C)cc4)cc32)[nH]c2c1C(=O)CCC2 [DCB-70091, (Z)-5-(3-p-tolylureido)-3-((3-(3-ethoxy-3-oxopropyl)-4-oxo-4,5,6,7-tetrahydro-1H-indol-2-yl)methylene)indolin-2-one] | 13% | 11.1% |
| Cc1ccc(NC(=O)Nc2ccc3c(c2)/C(=C/c2[nH]c4c(c2CCC(=O)O)C(=O)CCC4)C(=O)N3)cc1 [DCB-70093, (Z)-5-(3-p-tolylureido)-3-((3-carboxyethyl-4-oxo-4,5,6,7-tetrahydro-1H-indol-2-yl)methylene)indolin-2-one] | 40% | 44.7% |
| COc1ccc(NC(=O)Nc2ccc3c(c2)/C(=C/c2[nH]c4c(c2CCC(=O)O)C(=O)CCC4)C(=O)N3)cc1 [DCB-70094, (Z)-5-(3-(4-methoxyphenyl)ureido)-3-((3-carboxyethyl-4-oxo-4,5,6,7-tetrahydro-1H-indol-2-yl)methylene)indolin-2-one] | 48.5% | 52.8% |
| CCOC(=O)CCc1c(/C=C2\C(=O)Nc3ccc(NC(=O)c4ccccc4)cc32)[nH]c2c1C(=O)CCC2 [DCB-70096, (Z)-5-benazmido-3-((3-(3-ethoxy-3-oxopropyl)-4-oxo-4,5,6,7-tetrahydro-1H-indol-2-yl)methylene)indolin-2-one] | 14.9% | 5.9% |
| O=C(O)CCc1c(/C=C2\C(=O)Nc3ccc(NC(=O)c4ccccc4)cc32)[nH]c2c1C(=O)CCC2 [DCB-70097, (Z)-5-benazmido-3-((3-carboxyethyl-4-oxo-4,5,6,7-tetrahydro-1H-indol-2-yl)methylene)indolin-2-one] | 21.5% | 2% |

Further lines, results first:

| inhibition at 0.5 µM (PDGFR-β kinase) | inhibition at 0.1 µM (Flt3 kinase) | Structure (SMILES) |
| --- | --- | --- |
| 9.6% | 1.1% | CCOC(=O)CCc1c(/C=C2\C(=O)Nc3cc(-c4cc5ccccc5s4)ccc32)[nH]c2c1C(=O)CCC2 [DCB-70079, (Z)-6-(benzo[b]thiophen-2-yl)-3-((3-(3-ethoxy-3-oxopropyl)-4-oxo-4,5,6,7-tetrahydro-1H-indol-2-yl)methylene)indolin-2-one] |
| 25.2% | 30% | CCOC(=O)CCc1c(/C=C2\C(=O)Nc3cc(-c4ccc(O)c(OC)c4)ccc32)[nH]c2c1C(=O)CCC2 [DCB-70081, (Z)-6-(4-hydroxy-3-methoxyphenyl)-3-((3-(3-ethoxy-3-oxopropyl)-4-oxo-4,5,6,7-tetrahydro-1H-indol-2-yl)methylene)indolin-2-one] |
| 6% | -2.6% | O=C(O)CCc1c(C=C2C(=S)Nc3ccccc32)[nH]c2c1C(=O)CCC2 [DCB-70084, 3-((3-carboxyethyl-4-oxo-4,5,6,7-tetrahydro-1H-indol-2-yl)methylene)indolin-2-thione] |
| 7.8% | 1.4% | O=C(O)CCc1c(/C=C2\C(=O)Nc3ccc(S(=O)(=O)N4CCCC4)cc32)[nH]c2c1C(=O)CCC2 [DCB-70087, (Z)-5-(pyrrolidin-1-ylsulfonyl)-3-((3-carboxyethyl-4-oxo-4,5,6,7-tetrahydro-1H-indol-2-yl)methylene)indolin-2-one] |
| 1% | -2.1% | O=C(O)CCc1c(/C=C2\C(=O)Nc3ccc(S(=O)(=O)N4CCOCC4)cc32)[nH]c2c1C(=O)CCC2 [DCB-70088, (Z)-5-morpholinosulfonyl-3-((3-carboxyethyl-4-oxo-4,5,6,7-tetrahydro-1H-indol-2-yl)methylene)indolin-2-one] |
| 14.1% | 22.5% | CCOC(=O)CCc1c(/C=C2\C(=O)Nc3ccc(NC(=O)Nc4ccc(OC)cc4)cc32)[nH]c2c1C(=O)CCC2 [DCB-70092, (Z)-5-(3-(4-methoxyphenyl)ureido)-3-((3-(3-ethoxy-3-oxopropyl)-4-oxo-4,5,6,7-tetrahydro-1H-indol-2-yl)methylene)indolin-2-one] |
| 36.2% | 27.2% | NS(=O)(=O)c1ccc2c(c1)/C(=C/c1[nH]c3c(c1CCC(=O)O)C(=O)CCC3)C(=O)N2 [DCB-70095, (Z)-5-sulfamoyl-3-((3-carboxyethyl-4-oxo-4,5,6,7-tetrahydro-1H-indol-2-yl)methylene)indolin-2-one] |
| 39.3% | 4.8% | CCOC(=O)CCc1c(/C=C2\C(=O)Nc3cc(-c4ccc(F)cc4)ccc32)[nH]c2c1C(=O)CCC2 [DCB-70098, (Z)-6-(4-fluorophenyl)-3-((3-(3-ethoxy-3-oxopropyl)-4-oxo-4,5,6,7-tetrahydro-1H-indol-2-yl)methylene)indolin-2-one] |
